# According to PMC5943477, “A Novel Enzyme Portfolio for Red Algal Polysaccharide Degradation in the Marine Bacterium Paraglaciecola hydrolytica S66^T Encoded in a Sizeable Polysaccharide Utilization Locus” (Frontiers in Microbiology, 2018):
# Assays:
# Format in all cases: biochemical
# Ph1664 (GH16) = molecular target: T1, Ph1664 (GH16) (Paraglaciecola hydrolytica, UniProt A0A136A0V5); assay: FACE (ANTS label) of hydrolysis products from κ-carrageenan and furcellaran, crude recombinant lysate; conditions: 25 °C overnight, pH 8, 300 mM NaCl, 5 mM MgCl2; polysaccharide 0.05% w/v
# T1 construct: gene AX660_11805; full gene without any predicted signal peptide, pET9a-USER vector (octa-His tag), E. coli BL21(DE3) crude lysate
# T1 sequence (A0A136A0V5 20-322): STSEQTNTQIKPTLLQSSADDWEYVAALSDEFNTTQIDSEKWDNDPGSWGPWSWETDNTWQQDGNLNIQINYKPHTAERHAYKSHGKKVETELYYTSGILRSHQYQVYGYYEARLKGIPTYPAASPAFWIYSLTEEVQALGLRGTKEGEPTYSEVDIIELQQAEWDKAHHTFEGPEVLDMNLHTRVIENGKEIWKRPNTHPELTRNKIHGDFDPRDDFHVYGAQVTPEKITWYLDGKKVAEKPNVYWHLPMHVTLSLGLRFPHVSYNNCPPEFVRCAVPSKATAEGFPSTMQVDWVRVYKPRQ
# Ph1615 (GH117) = molecular target: T2, Ph1615 (GH117) (Paraglaciecola hydrolytica, UniProt A0A136A0T3); assay: TLC of hydrolysis products, crude recombinant lysate; conditions: 25 °C overnight, pH 8
# T2 construct: gene AX660_11560; full gene without any predicted signal peptide, pET9a-USER vector (octa-His tag), E. coli BL21(DE3) crude lysate
# T2 sequence (A0A136A0T3 1-359): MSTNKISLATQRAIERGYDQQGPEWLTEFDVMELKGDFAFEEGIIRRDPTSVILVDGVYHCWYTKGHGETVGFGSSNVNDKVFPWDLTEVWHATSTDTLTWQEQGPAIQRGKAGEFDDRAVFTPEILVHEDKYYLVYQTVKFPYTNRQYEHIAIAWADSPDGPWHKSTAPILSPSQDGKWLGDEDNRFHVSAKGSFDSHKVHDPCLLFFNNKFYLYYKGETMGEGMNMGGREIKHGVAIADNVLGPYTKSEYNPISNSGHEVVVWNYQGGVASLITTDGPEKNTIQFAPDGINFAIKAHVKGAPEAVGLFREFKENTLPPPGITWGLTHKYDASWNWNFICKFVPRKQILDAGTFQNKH
# Ph1631 (GH16) = molecular target: T3, Ph1631 (GH16) (Paraglaciecola hydrolytica, UniProt A0A136A0U8); assay: TLC of hydrolysis products from agarose, crude recombinant lysate; conditions: 25 °C overnight, pH 8; agarose 0.05% w/v
# T3 construct: gene AX660_11645; full gene without any predicted signal peptide, pET22b NdeI/XhoI, E. coli BL21(DE3) crude lysate
# T3 sequence (A0A136A0U8 20-293): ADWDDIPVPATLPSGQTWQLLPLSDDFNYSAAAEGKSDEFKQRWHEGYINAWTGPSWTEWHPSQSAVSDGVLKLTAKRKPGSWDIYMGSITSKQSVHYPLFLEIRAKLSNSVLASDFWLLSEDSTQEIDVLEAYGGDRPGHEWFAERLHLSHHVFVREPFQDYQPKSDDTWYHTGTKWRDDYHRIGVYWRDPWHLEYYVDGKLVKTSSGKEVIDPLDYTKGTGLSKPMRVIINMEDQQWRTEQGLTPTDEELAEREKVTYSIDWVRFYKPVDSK
# Ph1675 (GH16) = molecular target: T4, Ph1675 (GH16) (Paraglaciecola hydrolytica, UniProt A0A136A0W8); assay: FACE (ANTS label) of hydrolysis products, crude recombinant lysate; conditions: 25 °C overnight, pH 8, lysis buffer with 5 mM CaCl2
# T4 construct: gene AX660_11860; full gene without any predicted signal peptide, pET9a-USER vector (octa-His tag), E. coli BL21(DE3) crude lysate
# T4 sequence (A0A136A0W8 35-349): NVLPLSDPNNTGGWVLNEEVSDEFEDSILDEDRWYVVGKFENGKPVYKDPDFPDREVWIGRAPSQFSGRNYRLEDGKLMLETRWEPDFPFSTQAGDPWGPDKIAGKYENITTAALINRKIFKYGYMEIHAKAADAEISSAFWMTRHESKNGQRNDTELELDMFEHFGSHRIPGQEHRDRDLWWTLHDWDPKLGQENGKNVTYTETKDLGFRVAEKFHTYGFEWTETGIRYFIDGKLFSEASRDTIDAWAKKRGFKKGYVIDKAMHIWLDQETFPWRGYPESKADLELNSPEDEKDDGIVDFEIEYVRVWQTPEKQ
# Ph1657 (GH42-like) = molecular target: T5, Ph1657 (GH42-like) (Paraglaciecola hydrolytica, UniProt A0A136A0V1); assay: FACE (AMAC label) of hydrolysis products, crude recombinant lysate; conditions: 25 °C overnight, pH 8, oligosaccharide 2 μg/μL
# T5 construct: gene AX660_11775; full gene without any predicted signal peptide, pET9a-USER vector (octa-His tag), E. coli BL21(DE3) crude lysate
# T5 sequence (A0A136A0V1 21-810): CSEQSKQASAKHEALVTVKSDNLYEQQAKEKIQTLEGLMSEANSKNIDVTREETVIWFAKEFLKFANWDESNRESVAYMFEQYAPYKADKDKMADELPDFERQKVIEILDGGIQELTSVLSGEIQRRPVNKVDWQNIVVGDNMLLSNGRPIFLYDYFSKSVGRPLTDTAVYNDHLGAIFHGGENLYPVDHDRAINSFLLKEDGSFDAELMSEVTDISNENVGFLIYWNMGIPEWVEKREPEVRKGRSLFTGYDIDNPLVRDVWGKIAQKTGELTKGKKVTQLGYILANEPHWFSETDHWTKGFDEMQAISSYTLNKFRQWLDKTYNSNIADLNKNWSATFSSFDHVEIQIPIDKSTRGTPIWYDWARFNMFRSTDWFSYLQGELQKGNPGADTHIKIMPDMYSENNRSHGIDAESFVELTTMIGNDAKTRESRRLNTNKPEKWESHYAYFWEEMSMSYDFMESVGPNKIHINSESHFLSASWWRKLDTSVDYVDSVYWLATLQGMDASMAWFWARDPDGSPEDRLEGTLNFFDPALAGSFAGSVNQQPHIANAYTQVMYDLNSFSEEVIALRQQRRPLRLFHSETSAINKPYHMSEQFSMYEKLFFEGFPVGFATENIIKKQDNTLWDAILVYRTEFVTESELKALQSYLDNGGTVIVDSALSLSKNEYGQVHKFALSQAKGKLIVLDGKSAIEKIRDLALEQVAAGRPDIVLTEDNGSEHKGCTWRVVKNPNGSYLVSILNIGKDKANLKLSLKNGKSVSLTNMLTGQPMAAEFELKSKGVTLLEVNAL
smiles,measurement,setting,value
"O=S(=O)(O)O[C@@H]1[C@H](O[C@H]2O[C@@H]3CO[C@@H]([C@H]3O)[C@H]2O)[C@@H](O)C(O)O[C@@H]1CO (stereo partly drawn) [κ, neo-κ-carrabiose]","FACE (ANTS label) of hydrolysis products from κ-carrageenan and furcellaran, cru",Ph1664 (GH16),"releasing hydrolysis products corresponding to neo-κ-carrabiose (κ), neo-κ-carratetraose (κ-κ)"
"O=S(=O)(O)O[C@@H]1[C@H](O[C@H]2O[C@@H]3CO[C@@H]([C@H]3O)[C@H]2O)[C@@H](O)[C@H](O[C@@H]2[C@@H]3OC[C@H]2O[C@H](O[C@H]2[C@@H](OS(=O)(=O)O)[C@@H](CO)OC(O)[C@@H]2O)[C@@H]3O)O[C@@H]1CO (stereo partly drawn) [κ-κ, neo-κ-carratetraose]","FACE (ANTS label) of hydrolysis products from κ-carrageenan and furcellaran, cru",Ph1664 (GH16),"releasing hydrolysis products corresponding to neo-κ-carrabiose (κ), neo-κ-carratetraose (κ-κ)"
OC[C@H]1OC(O)[C@H](O)[C@@H](O[C@@H]2O[C@H]3CO[C@@H]([C@@H]2O)[C@@H]3O)[C@H]1O (stereo partly drawn) [neoagarobiose],"TLC of hydrolysis products, crude recombinant lysate",Ph1615 (GH117),Ph1615 (GH117) was able to hydrolyze neoagarobiose yielding L-AHG and galactose
OC[C@H]1O[C@@H](O[C@H]2[C@H]3OC[C@@H]2O[C@@H](O[C@H]2[C@@H](O)[C@@H](CO)OC(O)[C@@H]2O)[C@H]3O)[C@H](O)[C@@H](O[C@@H]2O[C@H]3CO[C@@H]([C@@H]2O)[C@@H]3O)[C@H]1O (stereo partly drawn) [neoagarotetraose],"TLC of hydrolysis products from agarose, crude recombinant lysate",Ph1631 (GH16),Ph1631 degraded agarose into primarily neoagarotetraose
"O=S(=O)(O)O[C@@H]1[C@H](O[C@H]2O[C@@H]3CO[C@H]([C@H]2O)[C@H]3O[C@@H]2O[C@H](CO)[C@H](O)[C@H](O[C@H]3O[C@@H]4CO[C@@H]([C@H]4O)[C@H]3O)[C@H]2O)[C@@H](O)C(O)O[C@@H]1CO (stereo partly drawn) [β-κ, β-κ tetrasaccharide]","FACE (ANTS label) of hydrolysis products, crude recombinant lysate",Ph1675 (GH16),it was found to degrade the substrate into the corresponding β- and κ-carrabiose units
same,"FACE (AMAC label) of hydrolysis products, crude recombinant lysate",Ph1657 (GH42-like),"when tested on a commercial β-κ tetrasaccharide, this substrate was indeed hydrolyzed into (β) and (κ)"
